Results: BindingDB's records for doi:10.1021/jm5002919 (Takeda Pharmaceutical, 2014)
pEC50: −log10 of the molar value.

Molecular target: G-protein coupled receptor 52 (Homo sapiens, UniProt Q9Y2T5)
Assay: Agonist activity at human GPR52 expressed in CHO cells assessed as cAMP production after 30 mins by Alphascreen assay

Sequence of G-protein coupled receptor 52 (Q9Y2T5 whole entry): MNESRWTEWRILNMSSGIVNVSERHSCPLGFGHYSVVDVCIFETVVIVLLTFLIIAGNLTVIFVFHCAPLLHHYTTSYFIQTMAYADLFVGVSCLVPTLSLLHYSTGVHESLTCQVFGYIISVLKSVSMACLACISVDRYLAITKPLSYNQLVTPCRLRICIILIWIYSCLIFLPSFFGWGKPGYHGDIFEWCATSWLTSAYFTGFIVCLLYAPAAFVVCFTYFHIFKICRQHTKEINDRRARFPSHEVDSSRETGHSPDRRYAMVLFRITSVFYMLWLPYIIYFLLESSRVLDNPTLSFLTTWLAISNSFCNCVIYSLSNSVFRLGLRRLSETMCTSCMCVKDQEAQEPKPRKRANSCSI

pEC50: < 5.00
SMILES: COc1ccc(-c2ccnc(NCCc3ccc(OC)c(OC)c3C)n2)cc1
